Measurements published in PMC7083880 (Nature Communications, 2020).

Tests used:
[1] = system: L5178Y TK+/− mouse lymphoma cells
Method: The idea was to reproduce the metabolizing conditions prevailing in the liver.
This was followed by a 24-h recovery period when the experiment was performed in the presence of Aroclor-induced rat liver S9 metabolizing mix (at 2% final concentration). […] The nuclei were then stained with Giemsa before counting the micronuclei among 1000 mononucleated cells.

HeLa cells [2] = experiment: Toxicity assay: adenylate kinase activity in culture medium; assay type: cell-based, human; details: 24 h; for Adenylate kinase activity in culture medium: STS 2µM
Method: The toxicity assay was performed 24 h after starting cell treatment. The cell culture supernatant was centrifuged at 6000×g for 10 min to pellet cells and cell debris. One-twentieth of the supernatant was then used to measure adenylate kinase activity according to the supplier’s protocol (Lonza Biosciences, Basel, Switzerland).

HeLa cells [3] = experiment: MTT colorimetric toxicity assay; assay type: cell-based; details: STS 2µM, 24 h
Method: incubated in cell culture medium containing 0.5 mg/ml 3-(4,5-dimethylthiazol-2-yl)-2,5-diphenyltetrazolium bromide (MTT) for 2 h at 37°C. The cells were then incubated for 30 min at 37°C in the solubilization solution (isopropanol/1N HCl 23:1) before collecting the supernatant to measure the absorbance at 540 and 620 nm for the background.
Supplementary Figure 4. […] (A) HeLa cells were incubated with propidium iodide after […]
staurosporine (STS). (B) HeLa cells were incubated with MTT after treatment for 24 h with […]
The results presented are representative of two independent experiments at least. Error bar= S.D., p-values (p) were calculated using Student's t-test. Source data are provided as a Source Data file.
(also on this page, place not known: % dead Colorimetry measure (au) cells of) […]

nonsense mutations = system: nonsense mutations; set-up: method as in PMID 28096517; details: cited from earlier work

Question: With `O=P1(N(CCCl)CCCl)NCCCO1` (centres unmarked) [Cyclopho sphamide, cyclophosphamide] as the molecule, how does the Micronucleated cells [1] read?
Answer: The Micronucleated cells was 60.

Question: Which “Release of adenylate kinase, in words” value (HeLa cells [2]) does the source give for `CN[C@@H]1C[C@H]2O[C@@](C)([C@@H]1OC)n1c3ccccc3c3c4c(c5c6ccccc6n2c5c31)C(=O)NC4` [STS, staurosporine, reference compound] here?
Answer: The value was “released adenylate kinase”.

Question: And the “Adenylate kinase activity in culture medium” value (from here on “Adenylate kinase activity”) (HeLa cells [2]; average)?
Answer: The value was 1755878.

Question: What about the “Adenylate kinase activity” value (HeLa cells [2]; experiment 1) of the same molecule?
Answer: Its value is 1822755.

Question: What about the “Adenylate kinase activity” value (HeLa cells [2]; experiment 2) of the same molecule?
Answer: Its value is 1498272.

Question: What about the “Adenylate kinase activity” value (HeLa cells [2]; experiment 3) of the same molecule?
Answer: The value was 1946608.

Question: And the MTT colorimetry measure (HeLa cells [3]; average)?
Answer: Its MTT colorimetry measure is 0.183 au.

Question: And the MTT colorimetry measure (HeLa cells [3]; experiment 1)?
Answer: Its MTT colorimetry measure is 0.0455 au.

Question: And the MTT colorimetry measure (HeLa cells [3]; experiment 2)?
Answer: Its MTT colorimetry measure is 0.1825 au.

Question: And the MTT colorimetry measure (HeLa cells [3]; experiment 3)?
Answer: Its MTT colorimetry measure is 0.321 au.

Question: For `Nc1ncnc(N[C@@H]2O[C@H](CO)[C@@H](O)[C@H]2O)c1[N+](=O)[O-]` [clitocine, (2R,3R,4S,5R)-2-[(6-amino-5-nitropyrimidin-4-yl)amino]-5-(hydroxymethyl)oxolane-3,4-diol], which “Nonsense mutation correction compared to G418” value (nonsense mutations) is on record?
Answer: The value was “correct nonsense mutations more efficiently than G418”.
